In ChEMBL document CHEMBL1201862, “PubChem BioAssay data set” (2004):
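Five concentrations, 48 hours, 96-well plates. Abbreviation: GI50, concentration required for 50% inhibition of growth.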 Active and inactive are the calls of the source. Rule as the data show it: active = GI50 up to about 1.1 µM and inactive = higher.

How the values were obtained:
Assay in all cases: NCI-60 cell line screen, 48 h
CAKI-1 = system: CAKI-1
UACC-257 = system: UACC-257
SNB-19 = system: SNB-19
M19-MEL = system: M19-MEL
U-251 = system: U-251
UACC-62 = system: UACC-62
SK-MEL-5 = system: SK-MEL-5
RPMI-8226 = system: RPMI-8226
OVCAR-4 = system: OVCAR-4
HL-60 = system: HL-60
A549 = system: A549
SF-539 = system: SF-539
EKVX = system: EKVX
IGROV-1 = system: IGROV-1
OVCAR-3 = system: OVCAR-3
MOLT-4 = system: MOLT-4
UO-31 = system: UO-31
A498 = system: A498

Q: What does the source list for `Cc1cccc(C)c1NC(=O)CCCC(=O)C1/C(=N/NC(=O)CC#N)CCC/C1=N\NC(=O)CC#N` (stereo not drawn)?
A: GI50 (CAKI-1): > 100 µM (inactive); GI50 (UACC-257): > 100 µM (inactive); GI50 (SNB-19): > 100 µM (inactive); GI50 (M19-MEL): > 100 µM (inactive); GI50 (U-251): > 100 µM (inactive); GI50 (UACC-62): > 100 µM (inactive); GI50 (SK-MEL-5): > 100 µM (inactive); GI50 (RPMI-8226): > 100 µM (inactive); GI50 (OVCAR-4): > 100 µM (inactive); GI50 (HL-60): > 100 µM (inactive); GI50 (A549): > 100 µM (inactive); GI50 (SF-539): > 100 µM (inactive); GI50 (EKVX): > 100 µM (inactive); GI50 (IGROV-1): > 100 µM (inactive); GI50 (OVCAR-3): > 100 µM (inactive); GI50 (MOLT-4): > 100 µM (inactive); GI50 (UO-31): > 100 µM (inactive); GI50 (A498): > 100 µM (inactive)

Q: Which results are given for `O=C1CC23CC(=O)CC2(C1)c1ccccc1C3=O` (stereo not drawn)?
A: GI50 (CAKI-1): > 100 µM (inactive); GI50 (UACC-257): > 100 µM (inactive); GI50 (SNB-19): > 100 µM (inactive); GI50 (M19-MEL): > 100 µM (inactive); GI50 (U-251): > 100 µM (inactive); GI50 (UACC-62): > 100 µM (inactive); GI50 (RPMI-8226): > 100 µM (inactive); GI50 (HL-60): > 100 µM (inactive); GI50 (A549): > 100 µM (inactive); GI50 (SF-539): > 100 µM (inactive); GI50 (EKVX): > 100 µM (inactive); GI50 (IGROV-1): > 100 µM (inactive); GI50 (OVCAR-3): > 100 µM (inactive); GI50 (MOLT-4): > 100 µM (inactive); GI50 (UO-31): > 100 µM (inactive)

Q: For `CC(C)(C)OC1=C(OC(C)(C)C)C(O)(c2ccc(Cl)cc2)C1=O` (stereo not drawn), which GI50 (SNB-19) is on record?
A: > 100 µM (inactive)

Q: What about the GI50 (M19-MEL) of the same compound?
A: > 100 µM (inactive)

Q: What about the GI50 (U-251) of the same compound?
A: > 100 µM (inactive)

Q: What about the GI50 (UACC-62) of the same compound?
A: > 100 µM (inactive)

Q: And the GI50 (SK-MEL-5)?
A: > 100 µM (inactive)

Q: What about the GI50 (RPMI-8226) of the same compound?
A: > 100 µM (inactive)

Q: What about the GI50 (OVCAR-4) of the same compound?
A: > 100 µM (inactive)

Q: And the GI50 (HL-60)?
A: > 100 µM (inactive)

Q: And the GI50 (A549)?
A: > 100 µM (inactive)

Q: What about the GI50 (SF-539) of the same compound?
A: > 100 µM (inactive)

Q: And the GI50 (EKVX)?
A: > 100 µM (inactive)

Q: What about the GI50 (IGROV-1) of the same compound?
A: > 100 µM (inactive)

Q: And the GI50 (OVCAR-3)?
A: > 100 µM (inactive)

Q: What about the GI50 (MOLT-4) of the same compound?
A: > 100 µM (inactive)

Q: What about the GI50 (UO-31) of the same compound?
A: > 100 µM (inactive)

Q: What about the GI50 (A498) of the same compound?
A: > 100 µM (inactive)

Q: With `O=C(NCCCN1CCN(CCCNC(=O)c2cccc3ccccc23)CC1)c1cccc2ccccc12` as the compound, how does the GI50 (CAKI-1) read?
A: 51.3 µM (inactive)

Q: And the GI50 (UACC-257)?
A: > 100 µM (inactive)

Q: What about the GI50 (SNB-19) of the same compound?
A: 76.7 µM (inactive)

Q: And the GI50 (M19-MEL)?
A: > 100 µM (inactive)

Q: What about the GI50 (U-251) of the same compound?
A: 97.5 µM (inactive)

Q: What about the GI50 (UACC-62) of the same compound?
A: > 100 µM (inactive)

Q: And the GI50 (SK-MEL-5)?
A: 36.4 µM (inactive)

Q: And the GI50 (RPMI-8226)?
A: > 100 µM (inactive)

Q: And the GI50 (OVCAR-4)?
A: > 100 µM (inactive)

Q: What about the GI50 (HL-60) of the same compound?
A: 79.6 µM (inactive)

Q: And the GI50 (A549)?
A: > 100 µM (inactive)

Q: What about the GI50 (SF-539) of the same compound?
A: 54.7 µM (inactive)

Q: And the GI50 (EKVX)?
A: > 100 µM (inactive)

Q: And the GI50 (IGROV-1)?
A: 78.3 µM (inactive)

Q: What about the GI50 (OVCAR-3) of the same compound?
A: 79.3 µM (inactive)

Q: And the GI50 (MOLT-4)?
A: > 100 µM (inactive)

Q: What about the GI50 (UO-31) of the same compound?
A: 32.3 µM (inactive)

Q: And the GI50 (A498)?
A: > 100 µM (inactive)

Q: What does the source list for `CN(C)CCn1c2ccccc2c2nc3cc4ccccc4cc3nc21`?
A: GI50 (CAKI-1): 4.91 µM (inactive); GI50 (SNB-19): 13.5 µM (inactive); GI50 (M19-MEL): 8.73 µM (inactive); GI50 (U-251): 6.79 µM (inactive); GI50 (UACC-62): 9.14 µM (inactive); GI50 (SK-MEL-5): 10.1 µM (inactive); GI50 (RPMI-8226): 2.91 µM (inactive); GI50 (OVCAR-4): 7.91 µM (inactive); GI50 (HL-60): 1.86 µM (inactive); GI50 (A549): 3.67 µM (inactive); GI50 (EKVX): 12.6 µM (inactive); GI50 (IGROV-1): 2.08 µM (inactive); GI50 (OVCAR-3): 10.6 µM (inactive); GI50 (MOLT-4): 0.885 µM (active); GI50 (UO-31): 5.07 µM (inactive); GI50 (A498): 2.34 µM (inactive)

Q: For `Cc1cc2c3ccccc3n(C)c2c2c1C(=O)c1ccccc1C2=O`, which GI50 (CAKI-1) is on record?
A: 21.9 µM (inactive)

Q: What about the GI50 (UACC-257) of the same compound?
A: 20 µM (inactive)

Q: What about the GI50 (SNB-19) of the same compound?
A: 33.5 µM (inactive)

Q: And the GI50 (M19-MEL)?
A: 3.01 µM (inactive)

Q: What about the GI50 (UACC-62) of the same compound?
A: 20.8 µM (inactive)

Q: What about the GI50 (RPMI-8226) of the same compound?
A: 6.3 µM (inactive)

Q: And the GI50 (OVCAR-4)?
A: 17.8 µM (inactive)

Q: What about the GI50 (HL-60) of the same compound?
A: 7.82 µM (inactive)

Q: What about the GI50 (A549) of the same compound?
A: 21.3 µM (inactive)

Q: What about the GI50 (SF-539) of the same compound?
A: > 100 µM (inactive)

Q: What about the GI50 (EKVX) of the same compound?
A: 24.3 µM (inactive)

Q: And the GI50 (IGROV-1)?
A: 19.4 µM (inactive)

Q: And the GI50 (OVCAR-3)?
A: 13.4 µM (inactive)

Q: What about the GI50 (MOLT-4) of the same compound?
A: 5.83 µM (inactive)

Q: What about the GI50 (UO-31) of the same compound?
A: 10.5 µM (inactive)

Q: What about the GI50 (A498) of the same compound?
A: 25.6 µM (inactive)

Q: Which results are given for `CCCCC/C=C1\CCC(CN(C)C)C1=O` (stereo not drawn)?
A: GI50 (CAKI-1): 7.05 µM (inactive); GI50 (UACC-257): 16.3 µM (inactive); GI50 (SNB-19): 19.5 µM (inactive); GI50 (M19-MEL): 10.4 µM (inactive); GI50 (U-251): 8.2 µM (inactive); GI50 (UACC-62): 15.9 µM (inactive); GI50 (SK-MEL-5): 18.2 µM (inactive); GI50 (RPMI-8226): 0.386 µM (active); GI50 (OVCAR-4): 20.1 µM (inactive); GI50 (HL-60): 6.97 µM (inactive); GI50 (A549): 34.1 µM (inactive); GI50 (SF-539): 10.9 µM (inactive); GI50 (EKVX): 26 µM (inactive); GI50 (IGROV-1): 17.5 µM (inactive); GI50 (OVCAR-3): 15.6 µM (inactive); GI50 (MOLT-4): 1.95 µM (inactive); GI50 (UO-31): 17 µM (inactive)

Q: With `CC#Cc1c(C#CC)c(OC)c2c(c1OC)C(=O)c1ccccc1C2=O` as the compound, how does the GI50 (CAKI-1) read?
A: 47.9 µM (inactive)

Q: What about the GI50 (UACC-257) of the same compound?
A: > 100 µM (inactive)

Q: And the GI50 (SNB-19)?
A: 20.3 µM (inactive)

Q: And the GI50 (M19-MEL)?
A: > 100 µM (inactive)

Q: What about the GI50 (U-251) of the same compound?
A: 21.4 µM (inactive)

Q: What about the GI50 (UACC-62) of the same compound?
A: 23.9 µM (inactive)

Q: What about the GI50 (SK-MEL-5) of the same compound?
A: 49.1 µM (inactive)

Q: What about the GI50 (RPMI-8226) of the same compound?
A: 39.2 µM (inactive)

Q: What about the GI50 (OVCAR-4) of the same compound?
A: > 100 µM (inactive)

Q: And the GI50 (HL-60)?
A: 33 µM (inactive)

Q: What about the GI50 (A549) of the same compound?
A: 88.3 µM (inactive)

Q: And the GI50 (EKVX)?
A: 45.7 µM (inactive)

Q: And the GI50 (IGROV-1)?
A: 73.6 µM (inactive)

Q: And the GI50 (OVCAR-3)?
A: > 100 µM (inactive)

Q: And the GI50 (MOLT-4)?
A: > 100 µM (inactive)

Q: And the GI50 (UO-31)?
A: 26 µM (inactive)

Q: And the GI50 (A498)?
A: 33.1 µM (inactive)
